Measurements taken from PubChem BioAssay AID248 (DTP/NCI, 2004).
“And” between values parts separate entries of the source, which are not always exact repeats. Equal values may be shown once. Toxic doses and inconclusive results are not listed. Rule as the data show it: active = T/C of 150% or more; inactive = T/C below 125%.

System: L1210 leukemia ip in BDF1 mice, survival T/C
Test: NCI In Vivo Anticancer Drug Screen. Data for tumor model L1210 Leukemia (intraperitoneal) in B6D2F1 (BDF1) mice
Details: endpoint: mean survival time, higher = longer survival
Outline: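 In this screen, tumor-bearing mice given compound are compared to those given vehicle, and their survival values are reported as a treated-to-control quotient.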

[1] = dose: 100.0 mg/kg/injection, schedule: Q01DX009 (ip), vehicle: saline with Tween-80
[2] = dose: 100.0 mg/kg/injection, schedule: Q04DX003 (ip), vehicle: saline with Tween-80
[3] = dose: 200.0 mg/kg/injection, schedule: Q01DX009 (ip), vehicle: saline with Tween-80
[4] = dose: 200.0 mg/kg/injection, schedule: Q04DX003 (ip), vehicle: saline with Tween-80
[5] = dose: 400.0 mg/kg/injection, schedule: Q01DX009 (ip), vehicle: saline with Tween-80
[6] = dose: 400.0 mg/kg/injection, schedule: Q04DX003 (ip), vehicle: saline with Tween-80
[7] = dose: 100.0 mg/kg/injection, schedule: Q04DX003 (ip), vehicle: Klucel (hydroxypropylcellulose) (HPC)
[8] = dose: 200.0 mg/kg/injection, schedule: Q04DX003 (ip), vehicle: Klucel (hydroxypropylcellulose) (HPC)
[9] = dose: 400.0 mg/kg/injection, schedule: Q04DX003 (ip), vehicle: Klucel (hydroxypropylcellulose) (HPC)
[10] = dose: 50.0 mg/kg/injection, schedule: Q01DX001 (ip), vehicle: saline
[11] = dose: 100.0 mg/kg/injection, schedule: Q01DX001 (ip), vehicle: saline
[12] = dose: 200.0 mg/kg/injection, schedule: Q01DX001 (ip), vehicle: saline
[13] = dose: 400.0 mg/kg/injection, schedule: Q01DX001 (ip), vehicle: saline
[14] = dose: 100.0 mg/kg/injection, schedule: Q04DX002 (ip), vehicle: saline with Tween-80
[15] = dose: 200.0 mg/kg/injection, schedule: Q04DX002 (ip), vehicle: saline with Tween-80
[16] = dose: 400.0 mg/kg/injection, schedule: Q04DX002 (ip), vehicle: saline with Tween-80

Measured: T/C

O=C(/C=C/C(=O)c1ccc(Cl)cc1)c1ccc(Cl)cc1
inactive: dose: 100.0 mg/kg/injection, schedule: Q01DX009 (ip), vehicle: gum acacia 95 % of control | dose: 100.0 mg/kg/injection, schedule: Q04DX003 (ip), vehicle: gum acacia 97 % of control | dose: 200.0 mg/kg/injection, schedule: Q01DX009 (ip), vehicle: gum acacia 95 % of control | dose: 200.0 mg/kg/injection, schedule: Q04DX003 (ip), vehicle: gum acacia 95 % of control | dose: 400.0 mg/kg/injection, schedule: Q01DX009 (ip), vehicle: gum acacia 101 % of control | dose: 400.0 mg/kg/injection, schedule: Q04DX003 (ip), vehicle: gum acacia 95 % of control

O=C(O)c1ccc(=O)[nH]n1
inactive: dose: 100.0 mg/kg/injection, schedule: Q04DX002 (ip), vehicle: Klucel (hydroxypropylcellulose) (HPC) 115 % of control | dose: 200.0 mg/kg/injection, schedule: Q04DX002 (ip), vehicle: Klucel (hydroxypropylcellulose) (HPC) 93 % of control | dose: 400.0 mg/kg/injection, schedule: Q04DX002 (ip), vehicle: Klucel (hydroxypropylcellulose) (HPC) 89 % of control

CCOC(=O)CCCc1c[nH]c2ccccc12
inactive: [1] 101 % of control | [2] 95 % of control | [3] 101 % of control | [4] 100 % of control | [5] 102 % of control | [6] 95 % of control

CC(=O)Nc1nc(Cl)c(N)c(SCc2ccccc2)n1
inactive: dose: 100.0 mg/kg/injection, schedule: Q01DX001 (ip), vehicle: Klucel (hydroxypropylcellulose) (HPC) 98 % of control | [7] 91 % of control | dose: 200.0 mg/kg/injection, schedule: Q01DX001 (ip), vehicle: Klucel (hydroxypropylcellulose) (HPC) 98 % of control | [8] 92 % of control | dose: 400.0 mg/kg/injection, schedule: Q01DX001 (ip), vehicle: Klucel (hydroxypropylcellulose) (HPC) 98 % of control | [9] 92 % of control

Cc1ccc(C(=O)Nc2ccc3c(c2)Cc2ccccc2-3)cc1
inactive: [10] 101 % of control | dose: 50.0 mg/kg/injection, schedule: Q04DX003 (ip), vehicle: Klucel (hydroxypropylcellulose) (HPC) 104 % of control | [11] 101 % of control | [7] 100 % of control | [12] 101 % of control | [8] 94 % of control | [13] 95 % of control

C1OCC(C2OCOC3COCOC32)O1 (stereo unspecified)
inactive: [7] 98 % of control | [8] 95 % of control | [9] 95 % of control

CC(C)=NC(=O)NO.[Cl][Co][Cl]
inactive: dose: 9.4 mg/kg/injection, schedule: Q04DX003 (ip), vehicle: saline 100 % of control | dose: 18.75 mg/kg/injection, schedule: Q04DX003 (ip), vehicle: saline 107 % of control | dose: 37.5 mg/kg/injection, schedule: Q04DX003 (ip), vehicle: saline 107 % of control | dose: 75.0 mg/kg/injection, schedule: Q01DX001 (ip), vehicle: saline 103 % of control

COc1ccccc1NC(=O)Nc1ccc(F)cc1
inactive: dose: 100.0 mg/kg/injection, schedule: Q01DX009 (ip), vehicle: Klucel (hydroxypropylcellulose) (HPC) 95 % of control | [7] 95 % of control | dose: 200.0 mg/kg/injection, schedule: Q01DX009 (ip), vehicle: Klucel (hydroxypropylcellulose) (HPC) 92 % of control | [8] 92 % of control | dose: 400.0 mg/kg/injection, schedule: Q01DX009 (ip), vehicle: Klucel (hydroxypropylcellulose) (HPC) 108 % of control | [9] 94 % of control

CC(C)(O)CNC(=O)c1cccc([N+](=O)[O-])c1
inactive: [7] 94 % of control | [8] 88 % of control

CCOC(=O)N1N=C([P+](c2ccccc2)(c2ccccc2)c2ccccc2)CC1(c1ccccc1)c1ccccc1
inactive: dose: 25.0 mg/kg/injection, schedule: Q01DX001 (ip), vehicle: saline 98 % of control | [10] 104 % of control | [11] 104 % of control

COc1ccc(C)cc1CCC=O
inactive: [11] 97 % of control | [12] 101 % of control | [13] 95 % of control

Cc1cccc(C2=N/C(=C\c3ccccc3)C(=O)O2)c1
inactive: [14] 95 % of control | [15] 89 % of control | [16] 89 % of control

C[N+]1(C)CCC[N+](C)(C)CC1
inactive: dose: 55.0 mg/kg/injection, schedule: Q01DX Z (ip), vehicle: saline 95 % of control | dose: 83.0 mg/kg/injection, schedule: Q01DX Z (ip), vehicle: saline 98 % of control | dose: 125.0 mg/kg/injection, schedule: Q01DX Z (ip), vehicle: saline 103 % of control

CCOC(=O)C(C)(C)CC(=O)COC
inactive: dose: 100.0 mg/kg/injection, schedule: Q01DX001 (ip), vehicle: acetone 98 % of control | dose: 100.0 mg/kg/injection, schedule: Q01DX009 (ip), vehicle: acetone 95 % of control | dose: 200.0 mg/kg/injection, schedule: Q01DX001 (ip), vehicle: acetone 100 % of control | dose: 200.0 mg/kg/injection, schedule: Q01DX009 (ip), vehicle: acetone 90 % of control | dose: 400.0 mg/kg/injection, schedule: Q01DX001 (ip), vehicle: acetone 94 % of control | dose: 400.0 mg/kg/injection, schedule: Q01DX009 (ip), vehicle: acetone 105 % of control

COc1ccc(CN2CCCN(Cc3ccc(OC)cc3)C2c2ccc(OC)cc2)cc1
inactive: [1] 92 % of control | dose: 100.0 mg/kg/injection, schedule: Q04DX003 (ip), vehicle: acetone 94 % of control | [3] 98 % of control and 87 % of control | dose: 200.0 mg/kg/injection, schedule: Q04DX003 (ip), vehicle: acetone 97 % of control | [5] 96 % of control | dose: 400.0 mg/kg/injection, schedule: Q04DX003 (ip), vehicle: acetone 95 % of control

CC(=O)NC(CO)C(O)c1ccc([N+](=O)[O-])cc1 (stereo unspecified)
inactive: dose: 100.0 mg/kg/injection, schedule: Q01DX001 (ip), vehicle: saline with Tween-80 101 % of control | [14] 87 % of control | dose: 200.0 mg/kg/injection, schedule: Q01DX001 (ip), vehicle: saline with Tween-80 87 % of control | [15] 94 % of control | dose: 400.0 mg/kg/injection, schedule: Q01DX001 (ip), vehicle: saline with Tween-80 97 % of control | [16] 100 % of control

CC(=O)[O][Hg][c]1cc2c(cc1O)Cc1cc([N+](=O)[O-])ccc1-2
inactive: dose: 12.5 mg/kg/injection, schedule: Q01DX001 (ip), vehicle: carboxymethylcellulose (CMC) 105 % of control | dose: 25.0 mg/kg/injection, schedule: Q01DX001 (ip), vehicle: carboxymethylcellulose (CMC) 100 % of control | dose: 50.0 mg/kg/injection, schedule: Q01DX001 (ip), vehicle: carboxymethylcellulose (CMC) 97 % of control

CCCCCCCCC(=O)Cl
inactive: dose: 100.0 mg/kg/injection, schedule: Q04DX002 (ip), vehicle: saline 100 % of control | dose: 200.0 mg/kg/injection, schedule: Q04DX002 (ip), vehicle: saline 100 % of control | dose: 400.0 mg/kg/injection, schedule: Q04DX002 (ip), vehicle: saline 103 % of control

CCc1ccc(/C(C#N)=C/c2ccc(N(C)CCC#N)cc2)cc1
inactive: dose: 12.5 mg/kg/injection, schedule: Q01DX009 (ip), vehicle: Klucel (hydroxypropylcellulose) (HPC) 95 % of control | dose: 25.0 mg/kg/injection, schedule: Q01DX009 (ip), vehicle: Klucel (hydroxypropylcellulose) (HPC) 95 % of control | dose: 50.0 mg/kg/injection, schedule: Q01DX009 (ip), vehicle: Klucel (hydroxypropylcellulose) (HPC) 94 % of control

COc1ccc2nc(N)sc2c1
inactive: dose: 12.5 mg/kg/injection, schedule: Q01DX009 (ip), vehicle: saline with Tween-80 96 % of control | dose: 25.0 mg/kg/injection, schedule: Q01DX009 (ip), vehicle: saline with Tween-80 89 % of control | dose: 50.0 mg/kg/injection, schedule: Q01DX009 (ip), vehicle: saline with Tween-80 97 % of control and 91 % of control | dose: 50.0 mg/kg/injection, schedule: Q04DX003 (ip), vehicle: saline with Tween-80 107 % of control | [2] 112 % of control | [4] 93 % of control

O=[N+]([O-])/C=C/c1c[nH]c2ccccc12
inactive: [2] 92 % of control | [4] 106 % of control | [6] 103 % of control
